Values joined by “and” are separate entries in the source; they are usually repeats but may differ in a detail not shown here. Identical values can stand only once. Inconclusive results and toxic doses are left out. Rule as the data show it: active = T/C of 150% or more; inactive = T/C below 125%.
Test system: L1210 leukemia ip in BDF1 mice, survival T/C
Test: NCI In Vivo Anticancer Drug Screen. Data for tumor model L1210 Leukemia (intraperitoneal) in B6D2F1 (BDF1) mice
Conditions: endpoint: mean survival time, higher = longer survival
Procedure, shortened: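 Tumor was transplanted into mice, which were then dosed with test compound or vehicle alone. Survival was recorded for each group, and the treated figure was expressed relative to the control figure.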

[1] = dose: 100.0 mg/kg/injection, schedule: Q04DX003 (ip), vehicle: saline
[2] = dose: 200.0 mg/kg/injection, schedule: Q04DX003 (ip), vehicle: saline
[3] = dose: 100.0 mg/kg/injection, schedule: Q01DX001 (ip), vehicle: saline
[4] = dose: 200.0 mg/kg/injection, schedule: Q01DX001 (ip), vehicle: saline
[5] = dose: 400.0 mg/kg/injection, schedule: Q01DX001 (ip), vehicle: saline
[6] = dose: 100.0 mg/kg/injection, schedule: Q04DX003 (ip), vehicle: saline with Tween-80
[7] = dose: 200.0 mg/kg/injection, schedule: Q04DX003 (ip), vehicle: saline with Tween-80
[8] = dose: 400.0 mg/kg/injection, schedule: Q04DX003 (ip), vehicle: saline with Tween-80
[9] = dose: 100.0 mg/kg/injection, schedule: Q01DX001 (ip), vehicle: carboxymethylcellulose (CMC)
[10] = dose: 200.0 mg/kg/injection, schedule: Q01DX001 (ip), vehicle: carboxymethylcellulose (CMC)
[11] = dose: 12.5 mg/kg/injection, schedule: Q01DX009 (ip), vehicle: Klucel (hydroxypropylcellulose) (HPC)
[12] = dose: 25.0 mg/kg/injection, schedule: Q01DX009 (ip), vehicle: Klucel (hydroxypropylcellulose) (HPC)
[13] = dose: 50.0 mg/kg/injection, schedule: Q01DX009 (ip), vehicle: Klucel (hydroxypropylcellulose) (HPC)
[14] = dose: 100.0 mg/kg/injection, schedule: Q01DX009 (ip), vehicle: saline with Tween-80
[15] = dose: 200.0 mg/kg/injection, schedule: Q01DX001 (ip), vehicle: saline with Tween-80

Measured: T/C

CCOC(=O)c1ncn(-c2ccccc2)c1C(=O)OCC
inactive: dose: 100.0 mg/kg/injection, schedule: Q04DX002 (ip), vehicle: carboxymethylcellulose (CMC) 100 % of control | dose: 100.0 mg/kg/injection, schedule: Q04DX003 (ip), vehicle: carboxymethylcellulose (CMC) 96 % of control and 100 % of control | dose: 200.0 mg/kg/injection, schedule: Q04DX002 (ip), vehicle: carboxymethylcellulose (CMC) 97 % of control and 104 % of control | dose: 200.0 mg/kg/injection, schedule: Q04DX003 (ip), vehicle: carboxymethylcellulose (CMC) 96 % of control and 101 % of control | dose: 400.0 mg/kg/injection, schedule: Q04DX002 (ip), vehicle: carboxymethylcellulose (CMC) 94 % of control and 86 % of control | dose: 400.0 mg/kg/injection, schedule: Q04DX003 (ip), vehicle: carboxymethylcellulose (CMC) 94 % of control and 92 % of control

CN1CCC=C(CO)C1
inactive: [1] 97 % of control | [2] 107 % of control | dose: 400.0 mg/kg/injection, schedule: Q04DX003 (ip), vehicle: saline 103 % of control

O=C(CCCCC(=O)Nc1ccc(C(=O)Nc2cc(C3=NCCN3)cc(C3=NCCN3)c2)cc1)Nc1ccc(C(=O)Nc2cc(C3=NCCN3)cc(C3=NCCN3)c2)cc1
inactive: dose: 35.0 mg/kg/injection, schedule: Q01DX Z (ip), vehicle: saline 102 % of control | dose: 55.0 mg/kg/injection, schedule: Q01DX Z (ip), vehicle: saline 103 % of control

COC(=O)C(C(C)C)N(C)C(=O)OC(C)(C)C (configuration not stated)
inactive: dose: 100.0 mg/kg/injection, schedule: Q01DX001 (ip), vehicle: other 104 % of control | dose: 200.0 mg/kg/injection, schedule: Q01DX001 (ip), vehicle: other 102 % of control | dose: 400.0 mg/kg/injection, schedule: Q01DX001 (ip), vehicle: other 100 % of control

CC(O)C1(O)C(O)CC(OC2c3cc4c(c(O)c3[C@@H]3C[C@@]2(C)OC32C=c3cc[nH]c3=N2)C(=O)c2cccc(O)c2C4=O)OC1C (some centres not stated)
inactive: dose: 0.5 mg/kg/injection, schedule: Q01DX009 (ip), vehicle: saline with Tween-80 101 % of control | dose: 1.0 mg/kg/injection, schedule: Q01DX009 (ip), vehicle: saline with Tween-80 101 % of control | dose: 2.0 mg/kg/injection, schedule: Q01DX009 (ip), vehicle: saline with Tween-80 105 % of control | dose: 2.0 mg/kg/injection, schedule: Q01DX009 (ip), vehicle: saline 112 % of control | dose: 4.0 mg/kg/injection, schedule: Q01DX009 (ip), vehicle: saline with Tween-80 110 % of control | dose: 4.0 mg/kg/injection, schedule: Q01DX009 (ip), vehicle: saline 109 % of control | dose: 8.0 mg/kg/injection, schedule: Q01DX009 (ip), vehicle: saline with Tween-80 103 % of control | dose: 8.0 mg/kg/injection, schedule: Q01DX009 (ip), vehicle: saline 106 % of control | dose: 16.0 mg/kg/injection, schedule: Q01DX009 (ip), vehicle: saline 121 % of control | dose: 32.0 mg/kg/injection, schedule: Q01DX009 (ip), vehicle: saline 104 % of control

Nc1nc2nc(-c3ccc([N+](=O)[O-])cc3)nc(N)c2nc1-c1ccc(N(CCO)CCO)cc1
inactive: [3] 90 % of control | [4] 95 % of control | [5] 95 % of control

CC(=O)N(C)c1ccc(C)cc1C
inactive: [6] 104 % of control | [7] 98 % of control | [8] 93 % of control

O=C(Nc1ccc(C2=NCC(O)CN2)cc1)c1ccc(C(=O)Nc2ccc(C3=NCC(O)CN3)cc2)c(Cl)c1 (configuration not stated)
inactive: dose: 12.0 micrograms/kg/injection, schedule: Q01DX015 (ip), vehicle: water 96 % of control | dose: 25.0 micrograms/kg/injection, schedule: Q01DX015 (ip), vehicle: water 114 % of control | dose: 50.0 micrograms/kg/injection, schedule: Q01DX015 (ip), vehicle: water 96 % of control | dose: 75.0 micrograms/kg/injection, schedule: Q01DX015 (ip), vehicle: water 102 % of control

Nc1c(Cl)ncnc1NC1CCC(CO)C1 (configuration not stated)
inactive: [9] 103 % of control | [10] 106 % of control

[NH-]c1ccccc1C(=O)O.[NH-]c1ccccc1C(=O)O.[Zn+2]
inactive: [11] 98 % of control | [12] 97 % of control | dose: 25.0 mg/kg/injection, schedule: Q04DX003 (ip), vehicle: Klucel (hydroxypropylcellulose) (HPC) 97 % of control | [13] 93 % of control | dose: 50.0 mg/kg/injection, schedule: Q04DX003 (ip), vehicle: Klucel (hydroxypropylcellulose) (HPC) 90 % of control | dose: 100.0 mg/kg/injection, schedule: Q04DX003 (ip), vehicle: Klucel (hydroxypropylcellulose) (HPC) 94 % of control

CNC(=S)Nc1c(C)cc(C)cc1C
inactive: dose: 25.0 mg/kg/injection, schedule: Q01DX009 (ip), vehicle: saline with Tween-80 98 % of control and 108 % of control | dose: 50.0 mg/kg/injection, schedule: Q01DX001 (ip), vehicle: saline with Tween-80 100 % of control | dose: 50.0 mg/kg/injection, schedule: Q01DX009 (ip), vehicle: saline with Tween-80 98 % of control and 105 % of control | dose: 100.0 mg/kg/injection, schedule: Q01DX001 (ip), vehicle: saline with Tween-80 91 % of control | [14] 97 % of control and 92 % of control | dose: 100.0 mg/kg/injection, schedule: Q04DX002 (ip), vehicle: saline with Tween-80 104 % of control and 106 % of control | [6] 104 % of control | [15] 96 % of control | dose: 200.0 mg/kg/injection, schedule: Q04DX002 (ip), vehicle: saline with Tween-80 96 % of control | [7] 94 % of control | [8] 95 % of control

NC(=O)/C=C\C(N)=O
inactive: dose: 50.0 mg/kg/injection, schedule: Q01DX009 (ip), vehicle: saline 103 % of control | dose: 50.0 mg/kg/injection, schedule: Q04DX003 (ip), vehicle: saline 100 % of control | dose: 100.0 mg/kg/injection, schedule: Q01DX009 (ip), vehicle: saline 99 % of control | [1] 104 % of control | [2] 99 % of control

CCCCCCCC/C=C\CCCCCCCC(=O)OC
inactive: [14] 91 % of control | [6] 96 % of control | dose: 200.0 mg/kg/injection, schedule: Q01DX009 (ip), vehicle: saline with Tween-80 92 % of control | [7] 100 % of control | dose: 400.0 mg/kg/injection, schedule: Q01DX009 (ip), vehicle: saline with Tween-80 95 % of control | [8] 98 % of control

Cn1[nH]nnc1=S
inactive: [6] 97 % of control | [7] 112 % of control

CCOC(OCC)c1nc(NC(C)=O)[nH]c(=O)c1CCCCc1ccccc1
inactive: [15] 88 % of control | dose: 400.0 mg/kg/injection, schedule: Q01DX001 (ip), vehicle: saline with Tween-80 91 % of control

CCNc1ncnc2c1c(C(N)=S)cn2C1OC(CO)C(O)C1O (configuration not stated)
inactive: dose: 12.5 mg/kg/injection, schedule: Q01DX005 (ip), vehicle: saline 111 % of control and 113 % of control | [11] 109 % of control | dose: 12.5 mg/kg/injection, schedule: Q01DX009 (ip), vehicle: saline 111 % of control | dose: 25.0 mg/kg/injection, schedule: Q01DX005 (ip), vehicle: saline 105 % of control and 124 % of control | [12] 91 % of control | dose: 25.0 mg/kg/injection, schedule: Q01DX009 (ip), vehicle: saline 112 % of control

O=c1[nH]c2ccccc2c(C(Cl)(Cl)Cl)c1Cl
inactive: [11] 93 % of control | [12] 90 % of control | [13] 100 % of control and 108 % of control | dose: 100.0 mg/kg/injection, schedule: Q01DX009 (ip), vehicle: Klucel (hydroxypropylcellulose) (HPC) 93 % of control

Cn1c(=S)sc2cc(Cl)ccc21
inactive: [6] 104 % of control | [7] 101 % of control | [8] 98 % of control

C1=CC(=P(c2ccccc2)(c2ccccc2)c2ccccc2)C=C1
inactive: dose: 30.0 mg/kg/injection, schedule: Q01DX015 (ip), vehicle: saline 95 % of control | dose: 50.0 mg/kg/injection, schedule: Q01DX001 (ip), vehicle: saline 92 % of control | dose: 60.0 mg/kg/injection, schedule: Q01DX015 (ip), vehicle: saline 89 % of control | [3] 97 % of control | dose: 120.0 mg/kg/injection, schedule: Q01DX015 (ip), vehicle: saline 91 % of control | [4] 98 % of control | dose: 240.0 mg/kg/injection, schedule: Q01DX015 (ip), vehicle: saline 91 % of control | [5] 97 % of control

Nc1ccc(Cc2ccc(N)cc2[N+](=O)[O-])c([N+](=O)[O-])c1
inactive: [9] 98 % of control | [10] 105 % of control | dose: 400.0 mg/kg/injection, schedule: Q01DX001 (ip), vehicle: carboxymethylcellulose (CMC) 100 % of control
